Patent US9499484B2, “Indole, indoline derivatives, compositions comprising them and uses thereof” (priority 2012, dated 2016)
Where a name gives a salt, the structure may show the parent alone.

How the values were obtained:
[1] = tested on: cytokine levels in spleen and brain; assay: Anti-inflammatory activity in LPS-injected mice, cytokine protein levels; type: in vivo, mouse; details: 8 h after ip LPS 10 mg/kg, two doses
Experimental: G. Evaluation of Anti-Inflammatory Activity in Mice
For measurement of cytokine protein levels, mice were treated with saline or LPS as described above and sacrificed 4 h or 8 h after drug administration, the spleen and rapidly brain removed. The brain was separated into fore, mid and hind sections (minus cerebellum) and frozen in liquid nitrogen and stored at −80° C. until use. […] The supernatant was rapidly frozen in liquid nitrogen and stored until use at −80° C. Cytokines were detected by using Elisa kits (Biolegend) and protein determination performed with Bradford reagent (Bio-RAD, 500-0006).

[2] = tested on: ChE (AChE, BuChE) in plasma, muscle, spleen, brain
Experimental: E. Acetylcholinesterase (AChE) and Butylcholinesterase (BuChE) Inhibition Ex Vivo
Compounds of the invention or saline were administrated by intraperitoneal (ip) injection or gavage to groups of 6-7 male ICR or Balb C mice (5-6 weeks of age). The mice were sacrificed 15, 30, 60 or 120 min after drug administration and the brain (minus cerebellum), spleen, and muscle were rapidly removed, weighed and put on ice. Blood was also collected in heparinised tubes, centrifuged at 14000 rpm at room temperature for 4 mM to provide plasma. Phosphate buffer pH 7 was added to each tissue to produce concentrations of 1 mg/mL for brain and spleen and 8 mg/mL for muscle. The tissues were homogenised in cold phosphate buffer pH 7 containing 0.1% Triton and centrifuged at 14000 rpm. Aliquots of plasma and the supernatant of all tissues were incubated with AcTh or BuTh and DTNB in phosphate buffer pH 7 and the rate of development of the yellow colour was measured as described above. Enzyme activity was measured for each time and drug concentration and percent inhibition of the AChE or BuChE activity was calculated by comparison with that of control mice injected with saline. Results are represented as p moles acetylthiocholine or butythiocholine hydrolysed/min/gm tissue.

[3] = tested on: NO, RAW 264.7 cells; assay: NO reduction in LPS-stimulated RAW 264.7 macrophages; type: cell-based, mouse; details: Mus musculus, RAW264.7, 24 h, read-out: Reduction in NO levels, RAW Macrophages % peak reduction
[4] = tested on: DNBS-induced colon inflammation; assay: DNBS-induced colitis in rats (model of Crohn's disease); type: in vivo, rat; details: rectal 1 mg/kg (2.5 μmoles/kg) prior to and after DNBS
Experimental: H. Measurement of Effect of Compounds of the Invention in a Model of Crohn's Disease in Rats
Inflammation in the colon was induced in male rats of the Sabra strain (250-300 g) by intra-colonic administration of 1 mL of dinitrobenzensulfonic acid (DNBS) (35 mg/mL in ethanol 25% v/v) under isoflurane anaesthesia. The novel drugs (827B or 680D) or saline was given rectally 1 h prior to DNBS at a dose of 1 mg/kg (2.5 μmoles/kg), and then twice daily at the same dose 12, 24, 36, 48, 60 and 72 h later. A group of control rats received saline rectally instead of DNBS and were pre-treated with saline instead of drug. The rats were anaesthetized by ip injection of a mixture of xylazine 3 mg, ketamine 85 mg, 1 mL/kg. The colon was exposed through a longitudinal abdominal incision. The area of ulceration was estimated. Segments of 10 cm of the colon were removed, cut open and rinsed with ice-cold saline. After cleaning with cold saline (0.9%) the wet weight of the colon was measured. Pieces of colon were analysed for activity of myeloperoxidase (MPO), a marker of neutrophil granulocyte infiltration into the inflamed colon tissue. One unit of MPO activity was defined as the amount of enzyme present that produced a change in absorbance of […] at 25° C. Results were quantified as U/g protein.

[5] = tested on: NO, BV2 mouse microglial cells; assay: NO reduction in LPS-stimulated BV2 microglia; type: cell-based; details: for Reduction in NO levels by at >20%, BV2 Microglia range: concentration range, None = no reduction up till 100 nM
Experimental: The BV2 mouse microglial cells were created by infecting primary mouse microglia with v-raf/v-myc oncogen-carrying retrovirus and donated by Dr. Sigal Fleisher—Berkovich (Ben-Gurion University of the Negev). The cells were cultured in RPMI 1640 containing 0.4 mM L-Glutamine, 10% FCS, 100 units/ml penicillin, 100 μg/ml streptomycin and maintained in a humidified incubator at 37° C. with 5% CO2. For measurement of the effect of compounds on the release of NO the cells were seeded in a density of 80,000 cells/ml and confluence of about 60%, and incubated with test compounds (in the absence of FCS) for […] All the medium was removed and fresh medium containing FCS and LPS (10 μg/ml) added and the cells maintained at 37° C. for 24 h. The release of NO into the medium was determined by measurement of nitrite levels using Griess reagent reaction. For measurement of protein levels of cytokines cells were seeded in a density of 80,000 and incubated with test compounds (in the absence of FCS) and then with LPS as described above. The medium was centrifuged and supernatants collected after 6 h for TNF-α (Biolegend) and after 20 h for IL-6 (Biolegend).

[6] = tested on: TNF-α, RAW 264.7 cells; assay: TNF-α reduction in LPS-stimulated RAW 264.7 macrophages; type: cell-based, mouse; details: Mus musculus, RAW264.7, 6 h, read-out: Reduction in TNF-α levels, RAW Macrophages % peak reduction
[7] = Fall in body temperature in rats; type: in vivo, rat; details: ip injection of two doses
Experimental: F. Temperature Measurements in Rats
Monitoring body temperature at different times after drug administration enables one to assess in vivo both the extent of drug effect and its duration in the same group of rats. Test compounds or saline were administrated by ip injection or by gavage to female Wistar rats aged 3-4 months. Body temperature was measured rectally by means of a thermocouple probe, before and every 30 min after drug administration until this returned to pre-injection values. The change in body temperature induced by the drug was computed for each dose at each time point in comparison with the temperature prior to drug injection.

[8] = tested on: TNF-α, BV2 mouse microglial cells; assay: TNF-α reduction in LPS-stimulated BV2 microglia; type: cell-based
[9] = Radical scavenging, Sin1; type: biochemical; details: mean ± SD, three independent experiments
[10] = target: T1, BuChE (UniProt P81908); type: biochemical, human or equine serum; details: read-out: IC50 BuChE 120 min; Table 3; 120 min incubation
T1 construct: 120 min incubation; BuChE IC50
How it was run: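 Enzyme incubated at 37° C with 6-10 compound concentrations, sampled at 15, 30, 60 and 120 min; residual activity read kinetically on a microplate reader. Percent inhibition relative to no-drug enzyme; BuChE run likewise with 0.075M butylthiocholine iodide as substrate.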

[11] = Radical scavenging, glucose oxidase/luminol luminescence; type: biochemical; details: concentration reducing luminescence/radical by 50%; mean ± SD, three independent experiments
How it was run: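 Glucose oxidase, luminol, sodium selenite and Co2+ in HBSS generate H2O2-driven oxidant luminescence. Compounds were added at several concentrations. The value is the concentration reducing luminescence by 50%.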

[12] = tested on: primary neurones in culture; details: Chyan et al., J. Biol. Chem. 1999; cited from earlier work
[13] = tested on: conversion of MCI to AD; details: chronic treatment; cited from earlier work

## CCN(C)C(=O)Oc1ccc2c(c1)NCC2CCC(=O)OC.CS(=O)(=O)O (stereo not shown) [AN-680D, Methyl 3-(6-((ethyl(methyl)carbamoyl)oxy)indolin-3-yl)propanoate methanesulfonate]
[1]
  reduction in cytokine levels in cerebral cortex (FIG. 6B): reduction
  reduction in cytokine levels in spleen (FIG. 6A): reduction
[2]; 100 μmoles/kg
  inhibition of ChE in mouse brain: no significant inhibition
[3]
  Emax: 47.8 ± 1.8%
[4]
  reduced MPO activity: 80%
  reduced colon weight: 30%
  reduced the area of colonic ulceration: 95%
[5]
  Reduction in NO levels, BV2 Microglia % peak reduction: 37.1 ± 5.3%
  Reduction in NO levels by at >20%, BV2 Microglia range: 10^−3-100 nM

## CCN(C)C(=O)Oc1cccc2c1CCN2 [AN-854, Indolin-4-yl ethyl(methyl)carbamate hydrochloride]
[6]
  Emax: 41.1 ± 3.8%
[7]
  fall in body temperature in rats (FIG. 4): fall in body temperature
[8]
  Reduction in TNF-α levels, BV2 Microglia % peak reduction: 8.4 ± 1.7%
[8]; concentration range, None = no reduction up till 100 nM
  Reduction in TNF-α levels, BV2 Microglia range: 100 nM
[9]
  IC50: 570 ± 10 nM
[10]
  IC50: 700 nM
[2]; 50 μmoles/kg
  inhibited ChE in the mouse brain: 30%
[2]; after ip and or oral administration in mice
  ChE inhibition in plasma, muscle, and spleen: inhibited ChE
[3]
  Emax: 45.2 ± 1.4%
[5]
  Reduction in NO levels by at >20%, BV2 Microglia range: None
[11]
  IC50: 1380 ± 100 nM

## O=C(O)CCc1c[nH]c2ccccc12 [IPA, 3-indole-propionic acid]
[12]
  protection of primary neurones against oxidative damage induced by beta amyloid: protects primary neurones in culture against oxidative damage induced by beta amyloid

## COc1cc2c(cc1OC)C(=O)C(CC1CCN(Cc3ccccc3)CC1)C2 (stereo not shown) [donepezil]
[13]
  proportion of MCI patients converting to AD: did not reduce the proportion converting to AD
